Entries after “also recorded” stand apart in the source; their conditions may differ.
How the values were obtained:
[1] = tested on: cotyledonary explants of Jute; details: cited from earlier work
[2] = tested on: mature internodal stem segments of sweet orange cv. Hamlin; test: Culture of explants on DBA3 medium with surfactant: fresh weight and shoot regeneration; type: cell-based, Citrus sinensis; details: for % Organogenic explants / Total shoot yield: 60 explants/treatment
Experimental: Mature budwood collected from C. sinensis cv. Hamlin from virus-free greenhouse material were grafted onto seedlings of rough lemon (C. jambhiri Lush.) and maintained in a greenhouse (20-27° C.). The developing shoots were allowed to grow as one, two and three flushes, each used separately for experimental studies. Shoots (approx. 20 cm in length) were pruned from each plant and used for explant preparation. The stems were stripped of their thorns and leaves, surface-sterilized in 70% ethanol (1 min), disinfected for 20 min in 20% (v/v) domestic bleach solution containing 0.2% (v/v) Tween® 20 and washed five times with sterile distilled water. Internodal stem explants were cut transversely into 1 cm long segments and placed horizontally onto the culture media with the cut ends submerged (approx. 2 mm) into the medium. […] The non-ionic surfactants were dissolved in sterile-distilled water and then filter-sterilized before adding to the medium after autoclaving, along with filter-sterilized Gamborg B5 vitamins and de-proteinized coconut water. Cultures were maintained in the light (60 μm m^−2s^−1 cool light fluorescent tubes) under a 16 h photoperiod at 28±2° C. and subcultured at 21-28 d intervals. After 10 weeks, the weight of each explant and the number of adventitious shoots was recorded. This experiment was repeated for each of the first three flushes of shoots to compare growth and shoot regeneration efficiencies.

[3] = tested on: shoots regenerated from mature stem segments of sweet orange cv. Hamlin; test: Grafting of regenerated adventitious shoots onto rough lemon rootstock: survival and growth; type: in vivo, Citrus sinensis
From the text: Adventitious shoots (0.5 cm long) were excised from mature stem segments and grafted in vivo onto rough lemon seedlings. Briefly, rough lemon seedlings (approx. 25-30 cm in height) were decapitated (approx. 15 cm above ground) where the diameter of the stem equals the width of the shoot (2-3 mm). A 5 mm deep longitudinal cut is made into the cambium layer of the seedling into which the shoot is wedged and the grafted area sealed with Parafilm. The shoot is wounded, each side, by removing approx. 1 mm of the surface with a scalpel blade in the same plane as the exposed cambium layer to promote growth of the new shoot. The whole plant is covered with a clear plastic bag and maintained in the light (100 μm^−2s^−1 cool light fluorescent tubes) under a 16 h photoperiod at 22-24° C. After approx. 21 d, the grafted shoot starts to grow and the bag is gradually opened to aid acclimatization. The plant is then transferred to the greenhouse approx. 28 d later and allowed to grow to maturity.
Shoots (approx. 1 cm in length) were excised from explants and grafted onto a rough lemon rootstock to allow growth and development. […] This phenotype of growth and development is typical of a mature citrus tree as observed in previous studies on the tissue culture of mature internodal stem segments (Cervera et al., 1998, Transgenic Res 7: 51-59).

[4] = Flush 1, surfactant 0.001%, 10 weeks of culture
[5] = Flush 1, surfactant 0.01%, 10 weeks of culture
[6] = Flush 1, surfactant 0.1%, 10 weeks of culture
[7] = Flush 1, surfactant 0.5%, 10 weeks of culture
[8] = Flush 2, surfactant 0.001%, 10 weeks of culture
[9] = Flush 2, surfactant 0.01%, 10 weeks of culture
[10] = Flush 2, surfactant 0.1%, 10 weeks of culture
[11] = Flush 2, surfactant 0.5%, 10 weeks of culture
[12] = Flush 3, surfactant 0.001%, 10 weeks of culture
[13] = Flush 3, surfactant 0.01%, 10 weeks of culture
[14] = Flush 3, surfactant 0.1%, 10 weeks of culture
[15] = Flush 3, surfactant 0.5%, 10 weeks of culture
[16] = shoots from explants cultured at 0.001-0.1% (v/v), rough lemon rootstock

polyethylene glycol p-(1,1,3,3-tetramethylbutyl)-phenyl ether [Triton® X-100]
growth of explants ([1]; 0.001% (v/v)): increased also the growth
state of shoots after transfer to shoot elongation medium ([1]; 0.001%, after 14-21 days): became necrotic
shoot regeneration of jute cotyledons [1]: able to promote shoot regeneration
growth and regeneration of explants ([1]; concentrations above 0.001% (v/v)): inhibited the growth and regeneration
Mean fresh weight ([2]; 0.001% (v/v) in DBA3, first flush): 347±24 mg f. wt.
number of shoots per explant and number of explants giving shoots compared to the control ([2]; 0.001% (v/v) in DBA3, first two flushes): lower compared to the control
Mean fresh weight ([2]; 0.001% (v/v) in DBA3, second flush): 309±23 mg f. wt.
fresh weight gain, number of shoots per explant and number giving shoots compared to DBA3 without surfactant ([2]; 0.1-0.5% (v/v) in DBA3): significantly (P<0.05) reduced
shoot regeneration ([2]; 0.5% (v/v) in DBA3): failed to regenerate shoots
Mean fresh weight [2, 4]: 347 ± 24 mg
Mean number of shoots per explant [2, 4]: 0.13 ± 0.06
% Organogenic explants [2, 4]: 10%
Total shoot yield [2, 4]: 8
Mean fresh weight [2, 5]: 254 ± 13 mg
Mean number of shoots per explant [2, 5]: 0.18 ± 0.07
% Organogenic explants [2, 5]: 13.5%
Total shoot yield [2, 5]: 11
Mean fresh weight [2, 6]: 153 ± 7 mg
Mean number of shoots per explant [2, 6]: 0.08 ± 0.04
% Organogenic explants [2, 6]: 6.5%
Total shoot yield [2, 6]: 5
Mean fresh weight [2, 7]: 75 ± 3 mg
Mean number of shoots per explant [2, 7]: 0.00 ± 0.00
% Organogenic explants [2, 7]: 0%
Total shoot yield [2, 7]: 0
Mean fresh weight [2, 8]: 309 ± 23 mg
Mean number of shoots per explant [2, 8]: 0.07 ± 0.03
% Organogenic explants [2, 8]: 6.5%
Total shoot yield [2, 8]: 4
Mean fresh weight [2, 9]: 264 ± 14 mg
Mean number of shoots per explant [2, 9]: 0.10 ± 0.05
% Organogenic explants [2, 9]: 6.5%
Total shoot yield [2, 9]: 6
Mean fresh weight [2, 10]: 158 ± 7 mg
Mean number of shoots per explant [2, 10]: 0.05 ± 0.03
% Organogenic explants [2, 10]: 5%
Total shoot yield [2, 10]: 3
Mean fresh weight [2, 11]: 85 ± 4 mg
Mean number of shoots per explant [2, 11]: 0.00 ± 0.00
% Organogenic explants [2, 11]: 0%
Total shoot yield [2, 11]: 0
Mean fresh weight [2, 12]: 135 ± 7 mg
Mean number of shoots per explant [2, 12]: 0.08 ± 0.04
% Organogenic explants [2, 12]: 6.5%
Total shoot yield [2, 12]: 5
Mean fresh weight [2, 13]: 126 ± 6 mg
Mean number of shoots per explant [2, 13]: 0.02 ± 0.02
% Organogenic explants [2, 13]: 1.5%
Total shoot yield [2, 13]: 1
Mean fresh weight [2, 14]: 89 ± 3 mg
Mean number of shoots per explant [2, 14]: 0.00 ± 0.00
% Organogenic explants [2, 14]: 0%
Total shoot yield [2, 14]: 0
Mean fresh weight [2, 15]: 61 ± 8 mg
Mean number of shoots per explant [2, 15]: 0.00 ± 0.00
% Organogenic explants [2, 15]: 0%
Total shoot yield [2, 15]: 0
shoots survived / shoots grafted [3, 16]: 5/15
survival rate of shoots following grafting [3, 16]: 33%

polyoxyethylene (20) sorbitan monolaurate [Tween® 20]
fresh weight gain ([1]; 0.001-0.01% (v/v)): significantly increased
number of regenerants ([1]; 0.001-0.01% (v/v)): significantly increased
growth ([1]; 0.5% (v/v)): inhibitory to growth
shoot production ([1]; 0.5% (v/v)): inhibited
shoot regeneration of jute cotyledons [1]: able to promote shoot regeneration
Mean fresh weight [2, 4]: 273 ± 15 mg
Mean number of shoots per explant [2, 4]: 0.23 ± 0.08
% Organogenic explants [2, 4]: 15%
Total shoot yield [2, 4]: 14
Mean fresh weight [2, 5]: 218 ± 12 mg
Mean number of shoots per explant [2, 5]: 0.25 ± 0.07
% Organogenic explants [2, 5]: 18.5%
Total shoot yield [2, 5]: 15
Mean fresh weight [2, 6]: 269 ± 13 mg
Mean number of shoots per explant [2, 6]: 0.31 ± 0.08
% Organogenic explants [2, 6]: 23%
Total shoot yield [2, 6]: 19
Mean fresh weight [2, 7]: 253 ± 12 mg
Mean number of shoots per explant [2, 7]: 0.18 ± 0.06
% Organogenic explants [2, 7]: 15%
Total shoot yield [2, 7]: 11
Mean fresh weight [2, 8]: 240 ± 15 mg
Mean number of shoots per explant [2, 8]: 0.22 ± 0.07
% Organogenic explants [2, 8]: 15%
Total shoot yield [2, 8]: 13
Mean fresh weight [2, 9]: 260 ± 13 mg
Mean number of shoots per explant [2, 9]: 0.20 ± 0.07
% Organogenic explants [2, 9]: 13.5%
Total shoot yield [2, 9]: 12
Mean fresh weight [2, 10]: 302 ± 19 mg
Mean number of shoots per explant [2, 10]: 0.22 ± 0.07
% Organogenic explants [2, 10]: 17%
Total shoot yield [2, 10]: 13
Mean fresh weight [2, 11]: 250 ± 13 mg
Mean number of shoots per explant [2, 11]: 0.17 ± 0.06
% Organogenic explants [2, 11]: 13.5%
Total shoot yield [2, 11]: 10
Mean fresh weight [2, 12]: 193 ± 8 mg
Mean number of shoots per explant [2, 12]: 0.07 ± 0.03
% Organogenic explants [2, 12]: 7%
Total shoot yield [2, 12]: 4
Mean fresh weight [2, 13]: 161 ± 7 mg
Mean number of shoots per explant [2, 13]: 0.05 ± 0.03
% Organogenic explants [2, 13]: 5%
Total shoot yield [2, 13]: 3
Mean fresh weight [2, 14]: 155 ± 7 mg
Mean number of shoots per explant [2, 14]: 0.08 ± 0.04
% Organogenic explants [2, 14]: 8.5%
Total shoot yield [2, 14]: 5
Mean fresh weight [2, 15]: 130 ± 6 mg
Mean number of shoots per explant [2, 15]: 0.05 ± 0.03
% Organogenic explants [2, 15]: 5%
Total shoot yield [2, 15]: 3
weight of explants compared to medium without surfactant ([2]; all three flushes of growth): no significant difference
growth of vitrified shoots following grafting ([3]; shoots from explants cultured on DBA3 with surfactant (0.01-0.5% (v/v))): failed to graft successfully in vivo; also recorded: all failed to initiate growth following grafting

From patent publication US20130071933A1, “CITRUS SHOOT REGENERATION COMPOSITIONS, METHODS, AND SYSTEMS” (priority 2011, published 2013)
